Laboratory results as given in publication PMC6941357, “An in vitro toolbox to accelerate anti-malarial drug discovery and development” (Malaria Journal, 2020).

Columns and labels:
[1] = In vitro metabolism (metabolic stability) in human liver microsomes; conditions: human
Method in brief: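 Compound depletion in human liver microsomes was followed by LC–MS at 2–60 min, with cofactor-free controls. First-order depletion rate constants gave in vitro CLint (µL/min/mg protein), corrected to unbound CLint using measured microsomal fu.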

[2] = Plasma protein binding via ultracentrifugation (UC); type: in vitro ADME, human; conditions: pH 7.4
Method in brief: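 Pooled human plasma (3–4 donors) spiked and ultracentrifuged; protein-free supernate gave Cunbound, parallel tubes kept at 37 °C gave Ctotal and stability (start vs end). Samples matrix-matched 1:1 with opposite blank and quantified against a common calibration curve; fu SD by error propagation.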

[3] = target: T1, Albumax medium (lipid rich bovine serum albumin) (Bos taurus, UniProt P02769); assay: Binding in Albumax medium via ultracentrifugation; type: in vitro ADME; conditions: bovine, isolated protein
T1 construct: purchased Gibco, Thermo Fisher Scientific
T1 sequence (P02769 25-607): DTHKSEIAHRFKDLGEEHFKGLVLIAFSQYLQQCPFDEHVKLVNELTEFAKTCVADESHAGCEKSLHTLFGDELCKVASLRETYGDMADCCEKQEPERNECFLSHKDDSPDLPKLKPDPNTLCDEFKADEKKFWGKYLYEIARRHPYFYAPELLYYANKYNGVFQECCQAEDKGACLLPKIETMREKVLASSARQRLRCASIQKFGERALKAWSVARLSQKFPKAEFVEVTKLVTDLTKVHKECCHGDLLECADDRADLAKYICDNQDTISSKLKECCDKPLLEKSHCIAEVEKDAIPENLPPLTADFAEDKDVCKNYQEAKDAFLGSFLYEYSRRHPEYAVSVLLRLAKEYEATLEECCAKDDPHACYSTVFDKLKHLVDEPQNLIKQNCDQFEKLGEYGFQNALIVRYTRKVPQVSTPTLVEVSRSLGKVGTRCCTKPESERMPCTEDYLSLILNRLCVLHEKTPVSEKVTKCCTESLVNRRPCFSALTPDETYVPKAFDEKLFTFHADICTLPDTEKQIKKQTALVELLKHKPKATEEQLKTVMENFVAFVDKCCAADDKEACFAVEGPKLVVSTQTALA
Method in brief: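 Unbound fraction (fu) taken as protein-free supernate concentration over total concentration after ultracentrifuging compound-spiked Albumax at 37 °C (5% or 10% CO2, or air). Analysis used 1:1 mixing with the opposite blank matrix against a common pH 7.4 calibration; degradation judged by start versus end Ctotal.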

[4] = Octanol/pH 7.4 buffer partition coefficient, shake flask; conditions: pH 7.4
Method in brief: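 Octanol stocks (3-30 mg/mL) were diluted 3- and 10-fold and shaken with equal volumes of pH 7.4 phosphate buffer (67 mM, in 43 mM NaCl) at 37 °C. Both phases were quantified by LC-MS against calibration standards. The coefficient is the mean octanol/buffer concentration ratio, with two time points confirming equilibrium.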

[5] = Binding to human liver microsomes via ultracentrifugation; type: in vitro ADME; conditions: human, read-out: Fraction unbound, HLM
Method in brief: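 Unbound fraction by ultracentrifugation: Cunbound measured in protein-free supernate, Ctotal from spiked tubes held at 37 °C, sampled at start and end to check degradation. Matrix was 0.4 mg/mL human liver microsomal protein, 0.1 M phosphate pH 7.4; matrix-matched analysis against one calibration curve.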

CYP2D6 = CYP2D6 (Homo sapiens, UniProt P10635); assay: Cytochrome P450 inhibition in human liver microsomes; conditions: for inhibition at 20 µM: human, pH 7.4; for inhibition at 20 µM / CYP2D6 % inhibition at max conc: microsomes
Chain of CYP2D6 (P10635 whole entry, canonical isoform): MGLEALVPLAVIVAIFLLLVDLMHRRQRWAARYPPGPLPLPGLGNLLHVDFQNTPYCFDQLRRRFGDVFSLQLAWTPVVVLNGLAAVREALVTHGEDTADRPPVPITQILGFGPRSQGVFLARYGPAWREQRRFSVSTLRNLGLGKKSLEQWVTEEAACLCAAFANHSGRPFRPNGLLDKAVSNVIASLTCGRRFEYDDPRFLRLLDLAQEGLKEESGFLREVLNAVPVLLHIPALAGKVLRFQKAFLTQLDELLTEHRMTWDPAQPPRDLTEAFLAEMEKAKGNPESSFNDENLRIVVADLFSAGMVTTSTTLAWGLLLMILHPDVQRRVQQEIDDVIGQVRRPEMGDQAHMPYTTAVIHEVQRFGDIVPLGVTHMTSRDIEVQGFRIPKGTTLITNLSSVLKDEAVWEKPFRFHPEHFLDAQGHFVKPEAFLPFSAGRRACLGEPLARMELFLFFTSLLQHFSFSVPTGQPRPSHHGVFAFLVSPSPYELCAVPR
Method in brief: (§1)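 Activity of each isoform followed via a specific probe-substrate metabolite formed in human liver microsomes; reactions quenched with ice-cold acetonitrile and metabolite measured by LC–MS. Percent inhibition taken versus metabolite formation without inhibitor; Km from metabolite formation rate (pmol/min/mg protein) across substrate concentrations.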

CYP3A4 = CYP3A4 (Homo sapiens, UniProt P08684); assay: as above; conditions: for IC50: highest concentration tested 20 µM; for inhibition at 20 µM: human; for inhibition at 20 µM / CYP3A4 (test) % inhibition at max conc / CYP3A4 (midaz) % inhibition at max conc: microsomes
Chain of CYP3A4 (P08684 whole entry): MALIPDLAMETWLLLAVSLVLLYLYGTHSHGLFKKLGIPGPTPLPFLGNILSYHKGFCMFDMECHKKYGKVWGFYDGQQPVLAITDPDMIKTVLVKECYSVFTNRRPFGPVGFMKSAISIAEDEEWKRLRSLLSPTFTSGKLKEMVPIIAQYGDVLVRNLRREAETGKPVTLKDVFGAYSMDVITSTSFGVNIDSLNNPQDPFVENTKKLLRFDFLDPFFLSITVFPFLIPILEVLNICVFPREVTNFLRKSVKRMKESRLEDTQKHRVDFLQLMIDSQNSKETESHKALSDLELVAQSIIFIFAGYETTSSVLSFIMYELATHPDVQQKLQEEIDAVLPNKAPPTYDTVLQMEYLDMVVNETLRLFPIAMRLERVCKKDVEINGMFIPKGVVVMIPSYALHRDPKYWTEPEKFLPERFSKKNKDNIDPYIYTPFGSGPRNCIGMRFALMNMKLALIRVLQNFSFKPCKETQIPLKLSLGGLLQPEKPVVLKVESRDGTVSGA
Method in brief: as §1

[6] = liver microsomes, pH 7.4, HLM CLint, human liver microsomes, average of n = 2 replicates, < 7 means < 15% loss over 60 min
[7] = human, neat pooled plasma, ultracentrifugation, neat plasma, read-out: Fraction unbound, human plasma
[8] = liver microsomes, pH 7.4, 0.4 mg/mL protein
[9] = CYP3A4 (midaz) IC50, human liver microsomes, CYP3A4 (midaz)
[10] = CYP3A4 (test) IC50, human liver microsomes, CYP3A4 (test)
[11] = pH 7.4, CYP3A4 (midaz) % inhibition at max conc
[12] = pH 7.4, CYP3A4 (test) % inhibition at max conc
[13] = human plasma, fraction unbound, read-out: Plasma fu
[14] = octanol/pH 7.4 phosphate buffered saline
[15] = microsomes, pH 7.4, 0.4 mg/mL protein

COc1ccc2nc3cc(Cl)ccc3c(Nc3cc(CN4CCCC4)c(O)c(CN4CCCC4)c3)c2n1 [Pyronaridine]
microsomal CLint at 1 µM [1, 6]: 8.6 µL/min/mg
fraction unbound at […] [2, 7]: 0.21
fraction unbound at […], 500 ng/mL ([3]; pH 7.4): 0.69 ± 0.023
logD ([4]; octanol/pH 7.4 buffer): 0.23
fraction unbound at […] [5, 8]: 0.29 ± 0.018
IC50 (CYP2D6): 1.2 µM
Ki (CYP2D6): 0.75 µM
IC50 (CYP3A4; [9]): > 20 µM
IC50 (CYP3A4; [10]): > 20 µM
inhibition at 20 µM (CYP3A4; [11]): 28%
CYP3A4 (test) % inhibition at max conc (CYP3A4): nmi

CCc1nc(N)nc(N)c1-c1ccc(Cl)cc1 [Pyrimethamine]
microsomal CLint at 1 µM [1, 6]: < 7 µL/min/mg
fraction unbound at […] [2, 7]: 0.085
fraction unbound at […], 500 ng/mL ([3]; pH 7.4): 0.46 ± 0.09
logD ([4]; octanol/pH 7.4 buffer): 2.41
fraction unbound at […] [5, 8]: 0.54 ± 0.097
IC50 (CYP2D6): > 20 µM
inhibition at 20 µM (CYP2D6): 36%

C[C@H]1[C@H](N2CCS(=O)(=O)CC2)O[C@@H]2O[C@@]3(C)CC[C@H]4[C@H](C)CC[C@@H]1[C@@]24OO3 [Artemisone]
microsomal CLint at 1 µM [1, 6]: 97.7 µL/min/mg
fraction unbound at […] [2, 7]: 0.12 ± 0.006
fraction unbound at […], 500 ng/mL ([3]; pH 7.4): 0.46 ± 0.013
logD ([4]; octanol/pH 7.4 buffer): 2.82
fraction unbound at […] [5, 8]: 0.44 ± 0.024

O=C1C(O)=C([C@H]2CC[C@H](c3ccc(Cl)cc3)CC2)C(=O)c2ccccc21 [Atovaquone]
microsomal CLint at 1 µM [1, 6]: < 7 µL/min/mg
fraction unbound at […] [2, 7]: 0.002
logD ([4]; octanol/pH 7.4 buffer): 5.3
fraction unbound at […] [5, 8]: ~0.002
IC50 (CYP2D6): > 20 µM
CYP2D6 % inhibition at max conc (CYP2D6): nmi
CYP3A4 (midaz) % inhibition at max conc (CYP3A4): nmi
CYP3A4 (test) % inhibition at max conc (CYP3A4): nmi

Cc1nc(Nc2ncc(N3CCN(C)[C@H](C)C3)c(Nc3cc(C)n(C)n3)n2)cc(C2CC2)c1F [MMV253]
microsomal CLint at 1 µM [1, 6]: 13.2 µL/min/mg
fraction unbound at […] [2, 7]: 0.067
fraction unbound at […], 500 ng/mL ([3]; pH 7.4): 0.48 ± 0.026
logD ([4]; octanol/pH 7.4 buffer): 4.42
fraction unbound at […] [5, 8]: 0.11 ± 0.017
IC50 (CYP2D6): > 20 µM
inhibition at 20 µM (CYP2D6): 35%
IC50 (CYP3A4; [10]): > 20 µM
inhibition at 20 µM (CYP3A4; [12]): 37%

C[C@H]1[C@@H](O)O[C@@H]2O[C@@]3(C)CC[C@H]4[C@H](C)CC[C@@H]1[C@@]24OO3 [Dihydroartemisinin]
microsomal CLint at 1 µM [1, 6]: 16.6 µL/min/mg
fraction unbound at […] ([2]; human, pooled plasma, ultracentrifugation, instability evident, estimate only, read-out: Fraction unbound, human plasma): 0.21 ± 0.01
fraction unbound at […] [2, 13]: 0.21
fraction unbound at […], 500 ng/mL ([3]; pH 7.4, instability evident, estimate only): 0.34 ± 0.018
logD ([4]; octanol/pH 7.4 buffer): 2.3
logD [4, 14]: 2.3
fraction unbound at […] ([5]; liver microsomes, pH 7.4, instability evident, estimate only): 0.87 ± 0.1
IC50 (CYP2D6): > 20 µM
CYP2D6 % inhibition at max conc (CYP2D6): nmi
IC50 (CYP3A4; [9]): > 20 µM
IC50 (CYP3A4; [10]): > 20 µM
CYP3A4 (midaz) % inhibition at max conc (CYP3A4): nmi
CYP3A4 (test) % inhibition at max conc (CYP3A4): nmi

CC(C)(N)CNC(=O)C[C@H]1CC[C@]2(CC1)OO[C@]1(O2)C2CC3CC(C2)CC1C3 [OZ277, Arterolane]
microsomal CLint at 1 µM ([1]; microsomes, pH 7.4, HLM CLint): < 7 µL/min/mg
fraction unbound at […] [2, 7]: 0.086 ± 0.008
fraction unbound at […] [2, 13]: 0.086
fraction unbound at […], 500 ng/mL ([3]; pH 7.4): 0.29 ± 0.021
logD ([4]; octanol/pH 7.4 buffer): 2.6
logD [4, 14]: 2.6
fraction unbound at […] [5, 15]: 0.044 ± 0.005
IC50 (CYP2D6): > 20 µM
IC50 (CYP3A4; [9]): > 20 µM
IC50 (CYP3A4; [10]): > 20 µM
inhibition at 20 µM (CYP3A4; [11]): 26%
inhibition at 20 µM (CYP3A4; [12]): 46%

COc1cc(NC(C)CCCN)c2ncccc2c1 (centres unmarked) [Primaquine]
microsomal CLint at 1 µM ([1]; microsomes, pH 7.4): 7.7 µL/min/mg
fraction unbound at […] ([2]; human, ultracentrifugation, neat plasma, read-out: Fraction unbound, human plasma): 0.26 ± 0.023
fraction unbound at […], 500 ng/mL ([3]; pH 7.4): 0.96 ± 0.056
Log D7.4 [4]: 0.54
logD [4]: 0.54
fraction unbound at […] [5, 15]: 0.56 ± 0.05
inhibition at 20 µM (CYP2D6): 33%
inhibition at 20 µM (CYP3A4; [11]): 31%
CYP3A4 (test) % inhibition at max conc (CYP3A4): nmi

[H]/N=C(\N/C(=N/[H])Nc1ccc(Cl)cc1)NC(C)C [Proguanil]
microsomal CLint at 1 µM [1, 6]: < 7 µL/min/mg
fraction unbound at […] [2, 7]: 0.34 ± 0.01
fraction unbound at […], 500 ng/mL ([3]; pH 7.4): 0.8 ± 0.021
logD ([4]; octanol/pH 7.4 buffer): 0.27
fraction unbound at […] [5, 8]: 0.33 ± 0.014
IC50 (CYP2D6): 3.5 µM
Ki (CYP2D6): 2.2 µM
inhibition at 20 µM (CYP3A4; [12]): 24%
CYP3A4 (midaz) % inhibition at max conc (CYP3A4): nmi
